One series has as its system H1975 xenograft tumors. In words: Xenografted human NSCLC (H1975) tumors in nude mice. It is filed as in vivo. To be noted: 30 mg/kg once per four days, during the treatment period. An excerpt:
The results were obtained from twelve mice and the bar represents the mean±S.E.M.**p<0.01, indicating significant difference between control and SP101 treatment group mice. ###p<0.001 indicates significant differences between SP101 and Gefitinib-treated mice.
The tumor weight was means±*p<0.05 indicating significant differences between control and SP101 treatment group mice. #p<0.05 indicates significant differences between SP101 and Gefitinib-treated mice.
NSCLC tumors in nude mice were established. Seven-week-old nude mice were subcutaneously injected with 3×10^6 H1975 cells. Please refer to FIGS. 7 and 8. After 7 to 10 days inoculation, the nude mice were treated with vehicle or 30 mg/kg SP101 or 30 mg/kg Gefitinib once per four days and tumor sizes in the nude mice were measured every four days. The nude mice were sacrificed after treatment for 16 days; the tumors were harvested to measure tumor volume/weight and further analyze tumor tissues. […] Please refer to FIG. 9.
(In xenograft studies the graft and the host belong to different species.)

Another series relates to A549-ON cells. In words: Annexin V/PI apoptosis flow cytometry in A549-ON cells. In kind it is cell-based, human. Conditions: 30 μM, early and late apoptosis, flow cytometry. How it is done: At the end of treatment, apoptosis was measured by Annexin V-PI staining using flow cytometry analysis. The population of Annexin V+/PI− cells represents cells undergoing early apoptosis (low right), whereas the fraction of Annexin V+/PI+ cell are those undergoing late apoptosis (upper right). The representative flow data were shown from one of three separate experiments with similar findings.
The bar represents the mean±S.E.M. ***p<0.001 indicates significant difference between untreated and SP101 or Gefitinib treated samples.
We compared the apoptosis levels of SP101 and Gefitinib in cancer stem-like A549-ON cells by Annexin V and PI staining. Please refer to FIG. 19. […] Please refer to FIG. 20. The average of total apoptosis follows SP101 and Gefitinib in the A549-ON cells around 69.29% and 7.59%, respectively.
A general note: In flow cytometry, cells or beads pass a laser one at a time.

Regarding `COc1cc2ncnc(Nc3ccc(F)c(Cl)c3)c2cc1OCCCN1CCOCC1` [Gefitinib, reference compound], the “body weight of the nude mice” value in the series on H1975 xenograft tumors is “did not alter”. For the same compound, the “average of total apoptosis” value with A549-ON cells is listed as around 7.59%.

These data come from patent US9980967B1, “Method for overcoming drug resistance of EGFR mutation and cancerous stemness of human non-small cell lung carcinoma” (NATIONAL CHIAO TUNG UNIVERSITY, priority 2017, dated 2018).
